The source of these data is patent US11753407B2, “Compounds for treating spinal muscular atrophy” (PTC Therapeutics, Inc., priority 2012, dated 2023).

Data set [1] has as its system Smn protein in SMA patient fibroblast cells (GM03813). Briefly: Smn protein assay in cultured cells (SMN HTRF). The class given is cell-based, human. To be noted: SMA patient fibroblast cells, 48 hours; for maximum fold (Fold) increase of Smn protein: 7-point concentration data, fold relative to vehicle control; for EC1.5x for Smn protein expression: 7-point concentration curve, SMN HTRF, concentration producing 1.5 times Smn protein vs DMSO vehicle control. In outline: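 Read-out: HTRF 665/620 nm ratio, blank-subtracted as ΔF, then expressed as fold over DMSO vehicle. Fibroblasts from SMA patients were exposed to compounds for 48 h (7 points, 3.16-fold steps, triplicates). Values are EC1.5× and maximum fold Smn increase.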
A general note: Time-resolved FRET reads energy transfer from a long-lived donor to a nearby acceptor.

For data set [2], the system named is SMN2 minigene mRNA (SMN2-A minigene) in HEK293H cells. Briefly: SMN2 minigene mRNA splicing RT-qPCR assay in cultured cells. The data set is classed as cell-based, human. The conditions noted are these: Homo sapiens, HEK293-H; concentration increasing full length SMN2 mRNA 1.5-fold relative to vehicle-treated cells; HEK293H cells with SMN2-A minigene, 24 hours, 7-point concentration data; read-out: EC1.5x for production of full length SMN2 mRNA. In outline: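 Read-out: minigene-specific full-length (exon 7-included) SMN2 mRNA by one-step multiplex RT-qPCR, normalized to GAPDH and divided by vehicle-treated level. Stable SMN2-A minigene HEK293H cells, 24 h compound exposure, 7 concentrations in duplicate. EC1.5× = concentration raising FL mRNA 1.5-fold.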
(In qPCR the cycle at which signal appears reflects the starting amount.)

Where only a bound is given, the exact number is not on record here.

The term melting point denotes the temperature of the solid-liquid transition. In turn, `COc1ccc(-c2cc(=O)n3cc(N4CCC(N(C)C)CC4)ccc3n2)cc1F` [Compound 185, 7-[4-(dimethylamino)piperidin-1-yl]-2-(3-fluoro-4-methoxyphenyl)-4H-pyrido[1,2-a]pyrimidin-4-one] yielded a melting point of 196 to 201 °C. Also, the “maximum fold (Fold) increase of Smn protein” value (shortened to “maximum fold (Fold) increase”) in data set [1] is “*** (a fold increase between >1.35 and ≤1.5 is indicated by three stars (***))”. In data set [2], the EC (1.5-fold increase) was below 0.1 µM.

On to `COc1ccc(-c2cc(=O)n3cc(C4=CCNCC4)ccc3n2)cc1F` [Compound 186, 2-(3-fluoro-4-methoxyphenyl)-7-(1,2,3,6-tetrahydropyridin-4-yl)-4H-pyrido[1,2-a]pyrimidin-4-one], for which the melting point is 182 to 184 °C. Moreover, in data set [1], the “EC1.5x for Smn protein expression” value is “*** (an EC1.5× between >0.3 μM and ≤1 μM is indicated by three stars (***))”; the “maximum fold (Fold) increase” value is “**** (a fold increase between >1.5 and ≤1.65 is indicated by four stars (****))”. In addition, in data set [2], the EC (1.5-fold increase) is below 0.1 µM.

For the molecule `C[C@H]1CN(c2ccc3nc(-c4cc(F)cc(Cl)c4)cc(=O)n3c2)CCN1` [Compound 189, 2-(3-chloro-5-fluorophenyl)-7-[(3S)-3-methylpiperazin-1-yl]-4H-pyrido[1,2-a]pyrimidin-4-one], the melting point was in the range of 188 to 190 °C. In data set [1], the “EC1.5x for Smn protein expression” value is “*** (an EC1.5× between >0.3 μM and ≤1 μM is indicated by three stars (***))”; the “maximum fold (Fold) increase” value is “**** (a fold increase between >1.5 and ≤1.65 is indicated by four stars (****))”. Moreover, in data set [2], the EC (1.5-fold increase) lay within 0.3 to 1 µM.

With `O=c1cc(-c2cc(F)cc(Cl)c2)nc2ccc(N3CCNCC3)cn12` [Compound 190, 2-(3-chloro-5-fluorophenyl)-7-(piperazin-1-yl)-4H-pyrido[1,2-a]pyrimidin-4-one], the melting point lay in the range of 180 to 184 °C. In data set [1], the “EC1.5x for Smn protein expression” value was “** (an EC1.5× between >1 μM and ≤3 μM is indicated by two stars (**))”; the “maximum fold (Fold) increase” value was “**** (a fold increase between >1.5 and ≤1.65 is indicated by four stars (****))”. Besides, the EC (1.5-fold increase) in data set [2] fell in the range of 0.3 to 1 µM.

Take `Cc1nc2ccc(-c3cc(=O)n4cc(N5CCN[C@H](C)C5)ccc4n3)cc2o1` [Compound 193, 2-(2-methyl-1,3-benzoxazol-6-yl)-7-[(3R)-3-methylpiperazin-1-yl]-4H-pyrido[1,2-a]pyrimidin-4-one]: the melting point is 175 to 177 °C. Further, in data set [1], the “EC1.5x for Smn protein expression” value is reported as “**** (an EC1.5x≤0.3 μM is indicated by four stars (****))” and the “maximum fold (Fold) increase” value is listed as “***** (a fold increase >1.65 is indicated by five stars (*****))”. The EC (1.5-fold increase) in data set [2] was below 0.1 µM.

Molecule `Cc1nc2ccc(-c3cc(=O)n4cc(N5CCNC(C)(C)C5)ccc4n3)cc2o1` [Compound 194, 7-(3,3-dimethylpiperazin-1-yl)-2-(2-methyl-1,3-benzoxazol-6-yl)-4H-pyrido[1,2-a]pyrimidin-4-one] yielded a melting point of 160 to 162 °C. Further, in data set [1], the “EC1.5x for Smn protein expression” value is given as “**** (an EC1.5x≤0.3 μM is indicated by four stars (****))” and the “maximum fold (Fold) increase” value is given as “***** (a fold increase >1.65 is indicated by five stars (*****))”. For the same molecule, the EC (1.5-fold increase) in data set [2] is below 0.1 µM.

Consider `Cc1nc2ccc(-c3cc(=O)n4cc(N5CCCNCC5)ccc4n3)cc2o1` [Compound 195, 7-(1,4-diazepan-1-yl)-2-(2-methyl-1,3-benzoxazol-6-yl)-4H-pyrido[1,2-a]pyrimidin-4-one], for which the melting point fell in the range of 134 to 137 °C. In addition, in data set [1], the “EC1.5x for Smn protein expression” value is “*** (an EC1.5× between >0.3 μM and ≤1 μM is indicated by three stars (***))”; the “maximum fold (Fold) increase” value was “**** (a fold increase between >1.5 and ≤1.65 is indicated by four stars (****))”. In data set [2], the EC (1.5-fold increase) is below 0.1 µM.

For the molecule `Cc1nc2ccc(-c3cc(=O)n4cc(N5CCCN(C)CC5)ccc4n3)cc2o1` [Compound 196, 2-(2-methyl-1,3-benzoxazol-6-yl)-7-(4-methyl-1,4-diazepan-1-yl)-4H-pyrido[1,2-a]pyrimidin-4-one], the melting point fell in the range of 146 to 150 °C. Moreover, in data set [1], the “EC1.5x for Smn protein expression” value was “**** (an EC1.5x≤0.3 μM is indicated by four stars (****))”; the “maximum fold (Fold) increase” value was “**** (a fold increase between >1.5 and ≤1.65 is indicated by four stars (****))”. The EC (1.5-fold increase) in data set [2] is below 0.1 µM.

For the molecule `Cc1nc2ccc(-c3cc(=O)n4cc(N5CCN6CCC[C@H]6C5)ccc4n3)cc2o1` [Compound 197, 7-[(8aS)-hexahydropyrrolo[1,2-a]pyrazin-2(1H)-yl]-2-(2-methyl-1,3-benzoxazol-6-yl)-4H-pyrido[1,2-a]pyrimidin-4-one], the melting point was 214 to 217 °C. For the same molecule, in data set [1], the “EC1.5x for Smn protein expression” value is “**** (an EC1.5x≤0.3 μM is indicated by four stars (****))” and the “maximum fold (Fold) increase” value is recorded as “***** (a fold increase >1.65 is indicated by five stars (*****))”. In data set [2], the EC (1.5-fold increase) lay within 0.1 to 0.3 µM.

Molecule `Cc1nc2ccc(-c3cc(=O)n4cc(N5CCN6CCC[C@@H]6C5)ccc4n3)cc2o1` [Compound 198, 7-[(8aR)-hexahydropyrrolo[1,2-a]pyrazin-2(1H)-yl]-2-(2-methyl-1,3-benzoxazol-6-yl)-4H-pyrido[1,2-a]pyrimidin-4-one] had a melting point of 194 to 199 °C. For the same molecule, in data set [1], the “EC1.5x for Smn protein expression” value is “**** (an EC1.5x≤0.3 μM is indicated by four stars (****))”; the “maximum fold (Fold) increase” value was “**** (a fold increase between >1.5 and ≤1.65 is indicated by four stars (****))”. Besides, the EC (1.5-fold increase) in data set [2] is below 0.1 µM.

`COc1cnc(-c2cc(=O)n3cc(N4CCNCC4)ccc3n2)cc1OC` [Compound 199, 2-(4,5-dimethoxypyridin-2-yl)-7-(piperazin-1-yl)-4H-pyrido[1,2-a]pyrimidin-4-one] yielded a melting point of 207 to 209 °C. Also, in data set [1], the “EC1.5x for Smn protein expression” value is “** (an EC1.5× between >1 μM and ≤3 μM is indicated by two stars (**))”; the “maximum fold (Fold) increase” value is “**** (a fold increase between >1.5 and ≤1.65 is indicated by four stars (****))”. Moreover, the EC (1.5-fold increase) in data set [2] lay in the range of 0.3 to 1 µM.

For `COc1ccc(-c2cc(=O)n3cc(N4CCC(N(C)C)C4)ccc3c2)cc1F` (stereo not shown) [Compound 200, 7-[3-(dimethylamino)pyrrolidin-1-yl]-2-(3-fluoro-4-methoxyphenyl)-4H-quinolizin-4-one], the melting point was in the range of 259 to 261 °C. Further, in data set [1], the “maximum fold (Fold) increase” value is recorded as “* (A maximum fold increase of ≤1.2 is indicated by one star (*))”. For the same molecule, the EC (1.5-fold increase) in data set [2] was 1 to 3 µM.

In turn, `CCN1CCN(c2ccc3nc(-c4ccc5nc(C)oc5c4)cc(=O)n3c2)CC1` [Compound 202, 7-(4-ethylpiperazin-1-yl)-2-(2-methyl-1,3-benzoxazol-6-yl)-4H-pyrido[1,2-a]pyrimidin-4-one] yielded a melting point of 212 to 216 °C. Further, the “maximum fold (Fold) increase” value in data set [1] is “** (a fold increase between >1.2 and ≤1.35 is indicated by two stars (**))”. Moreover, the EC (1.5-fold increase) in data set [2] lay in the range of 0.3 to 1 µM.
